Reference: the pKa sets of Baltruschat and Czodrowski (2020)

Settings: acidic group

Structure (SMILES) | pKa
Cn1nc(Cl)nc1NN=O | 4.03
Cc1cccc(OC(O)(CBr)c2ccccc2)c1 (stereo not drawn) | 11.2
OCCNC(=S)S | 2.82
CN(C)c1cc[nH+]c2c(O)cccc12 | 7.05
[NH3+]CC[SeH] | 5
c1ccc2c(c1)[nH]c1c2cc[n+]2cc3c(cc12)CCCC3 | 10.6
Cn1cnc2nc([O-])[nH]c(=S)c21 | 12.1
CC(=O)C(C)C(=O)C(C)C (stereo not drawn) | 11.8
Fc1cccc(NC(=S)c2cccc(Br)c2)c1 | 10
NC(=O)CC(=O)O | 3.61
Cc1cc(Cc2cc(O)ccc2C)c(O)c([N+](=O)[O-])c1 | 7.93
C=CCc1c(C)nn(C)c1O | 10.5
O=C(O)C[NH+](CC(=O)O)Cc1ccccc1O | 2.2
COC(=O)Nc1ncnc2nc[nH]c12 | 9.68
O=C1CCCC2CCCC(=O)C12 (stereo not drawn) | 11.1
CCCCCCCC[NH2+]CCC(=O)O | 3.56
NC(=[NH2+])NOCC(=O)O | 2.69
O=C(O)C[C@@H]1NC(=O)CNC1=O | 3.93
Nc1n[nH]cc1[N+](=O)[O-] | 9.73
CSC(=S)NCC(=O)O | 3.19
O=C(O)c1ccccc1Br | 2.93
CC(C)CCOc1ccccc1/C=C/C(=O)O | 4.85
CONc1cc(=O)n(C)c(=O)n1C | 10.6

Structure (SMILES) | pKa
O=[N+]([O-])c1cc(O)ccc1[O-] | 10.1
O=C([O-])/C=N/O | 10.2
O=C(O)C(=O)C(c1ccccc1)c1ccccc1 | 2.78
N#CC(CCCC(=O)O)c1ccccc1 (stereo not drawn) | 4.64
Oc1cccc2c1Nc1ccccc1N2 | 10.9
NC(=O)CS(N)(=O)=O | 9.7
NC(=O)c1ccncc1 | 10.5
CC([NH3+])C(=O)O (stereo not drawn) | 2.36
CC1=NCCc2c1[nH]c1ccccc21 | 14.9
CCc1nsc(O)n1 | 6.89
Cc1cc(Cl)ccc1O | 9.6
CC#CC#CC=C=C[C@@H](O)CCC(=O)O | 4.9
Oc1ccc2cccc(Cl)c2c1 | 8.69
CCc1ccc(C(C)C)cc1O | 10.6
CC(=O)CCCC(=O)O | 4.66
CC(C)C(N)C(N)=O (stereo not drawn) | 8
On1nnc2c(Cl)cccc21 | 3.9
CCCOC(=O)c1ccc(O)cc1 | 8.3
Oc1ccc2ccccc2c1 | 9.6
O=C(NO)c1cccc2ccccc12 | 7.7
O=C(O)/C=C/c1ccccc1O | 4.56
O=C(O)[C@H](O)c1ccc([N+](=O)[O-])cc1 | 2.99
O=C(Oc1ccc([N+](=O)[O-])cc1)C1c2ccccc2-c2ccccc21 | 9.9

Structure (SMILES) | pKa
Cc1nc2ncncc2[nH]1 | 9.37
NC(=O)NOCCC([NH3+])C(=O)O (stereo not drawn) | 2.5
On1nnc2ccc(C(F)(F)F)cc21 | 3.97
CCOC(=O)C1CCCC1=O (stereo not drawn) | 10.7
[O-]c1ccccc1/C=N/O | 12.1
Nc1nc(N)[nH+]c(O)n1 | 4.5
N#C/C(=C(\[O-])O)c1ccccc1 | 8.7
Cc1ccc(O)c(C(=O)O)c1 | 3.01
CO[C@H]1O[C@H](C(=O)O)[C@H](O)[C@H](O)[C@H]1O | 3.55
C(C[NH2+]CCc1nnn[nH]1)[NH2+]CCc1nnn[n-]1 | 4.09
CC(=N\O)/C(C)=N/O | 10.6
C[N+](C)(C)CCc1ccc(O)cc1 | 9.8
COC(=O)C1c2ccccc2-c2ccccc21 | 11.5
COc1ccc(O)c(CNC(CO)C(=O)[O-])c1 (stereo not drawn) | 10.4
CC(=O)CC(=O)Nc1cccc(C)c1 | 10
Nc1cncnc1N | 9.33
SCc1ccccc1 | 9.43
CCc1ccc(O)c(C(C)C)c1 | 10.8
O=[N+]([O-])c1ccccc1/C=N\O | 10.7
Cc1ccc(C(N)=S)cc1 | 12.8
CC1=NS(=O)(=O)c2cccnc2N1 | 7.64
Cc1ccc(/C=C/C(=O)C(=O)O)cc1 | 1.96
COc1cc(OC)nc([N-]S(=O)(=O)c2ccc(O)cc2)n1 | 9.05

Same assay, conditions: basic group

Structure (SMILES) | pKa
C[C@@H](N)C(=O)N1CCC[C@H]1C(=O)[O-] | 8.38
NC(c1ncc[nH]1)c1ncc[nH]1 | 6.49
OCC[NH+](CCO)Cc1nc2ccccc2[nH]1 | 2.15
Cc1cc(-c2ccccc2)nn2c(C[NH+](C)C)cnc12 | 3.18
CN(C)C1CC(C)(C)[NH2+]C(C)(C)C1 | 7.67
COc1ccc2ccc(OC)c(N3CCOCC3)c2c1N1CCOCC1 | 13
CC(C)NCC(O)c1cccc(F)c1 (stereo not drawn) | 9.48
CC(C)(C(=O)[O-])c1c[nH]c(CO)n1 | 7.38
NCCC(=O)c1ccccc1 | 8.3
CCC(O)CN(CC(C)O)C(C)(C)C (stereo not drawn) | 9.5
Nc1nc2ccccc2nc1N | 4.7
Cn1cnc2ccccc21 | 5.65
CCc1ccc(/N=N/c2ccc(N(C)C)cc2)cc1CC | 2.58
COC(=O)Nc1ncnc2nc[nH]c12 | 2.27
Cc1nc(C)nc(N)n1 | 3.6
C1CCN(CCN2CCCC2)C1 | 9.47
c1ccc(C2=NSC(N3CCOCC3)=NS2)cc1 | 8.33
CN(C)c1ccc2cc3ccc(N(C)C)cc3[nH+]c2c1 | 0.4
O=C(Cc1ccccc1Nc1c(Cl)cccc1Cl)OCCCCN1CCOCC1 | 8.4
CC1CCCNC1 (stereo not drawn) | 10.9
Cc1cc(-c2cc(C)n(C)n2)nn1C | 2.22
[NH3+]c1ccc(-c2ncc(-c3ccc(Br)cc3)o2)cc1 | -0.05

Structure (SMILES) | pKa
NCCc1c[nH]c2ccccc12 | 10.2
CC(CN(C)C)N(C)C (stereo not drawn) | 9.49
c1ccc(-c2ccncc2)cc1 | 5.3
O=C([O-])[C@@H]1O[C@H](Oc2cccc3ncccc23)[C@@H](O)[C@H](O)[C@H]1O | 4.91
CN(C)Cc1cccc(O)c1O | 8.01
CC1=NCCCC1 | 9.57
Cc1ccc2c(c1)c1c3c(nccn32)CCC1 | 6.24
N/C=N/O | 5.05
CCNc1cccc2ccccc12 | 4.19
Cc1cc(N)ccc1-c1ccc(N)cc1C | 4.9
c1ccc(-c2ccc(NCCN3CCOCC3)nn2)cc1 | 6.74
[O-]c1cc2ccccc2cc1C1=NCCN1 | 10.8
c1ccc(C2CN2)cc1 (stereo not drawn) | 6.47
NC(=O)CC(=O)c1cccnc1 | 8.61
CCCN(CC(C)O)CC(C)O (stereo not drawn) | 8.9
NCCc1ccncc1 | 9.37
CNc1cccc2ccccc12 | 3.7
C/N=c1/oc2c(n1C)CCCC2 | 10.2
CN=C(N(C)C)N(C)C | 13.8
Clc1ccc(-c2ncc(-c3ccccc3)o2)cc1 | 0.41
CCOc1cccc(/N=C/N(C)C)c1 | 8.87
NC(=O)c1ccncc1 | 3.57

Structure (SMILES) | pKa
COc1ccncn1 | 2.5
COc1ccc(CCN)cc1OC | 9.87
C[n+]1c([O-])ccnc1[O-] | 9.94
COc1cccc2ccc(C)nc12 | 5.69
CC1=NCCc2c1[nH]c1ccccc21 | 8.99
Nc1ccc2cc([N+](=O)[O-])ccc2c1 | 2.9
NCC(O)c1ccc(Cl)cc1 (stereo not drawn) | 9.04
CC(Cl)CN(C)C (stereo not drawn) | 8.12
c1ccc2cnncc2c1 | 3.47
CC(C)CN(CCS)CC(C)C | 8.23
C[NH2+]CCN(C)CCN | 9.68
CCN(CC)CCCCNc1cc[nH+]c2ccccc12 | 8.94
Cc1cccc(C2NCCS2)c1 (stereo not drawn) | 5.26
CC1(C)CC(NCCO)CC(C)(C)[NH2+]1 | 7.42
CN[C@H]1C[C@H]1NC | 8.73
N/C(CC[NH2+]c1ccccc1)=N\O | 2.45
CC(C)N/C=[NH+]/c1ccc(-c2cncn2C)cc1 | 6.51
NCC/C(N)=N/O | 9.15
CC(C=C(c1cccs1)c1cccs1)N1CCCCCCC1 (stereo not drawn) | 7.52
C[n+]1c([O-])c([O-])nc2ccccc21 | 9.74
Cc1nc2ncncc2[nH]1 | 2.85
CC1CCCC(C(=O)[O-])N1 (stereo not drawn) | 10.4

Structure (SMILES) | pKa
C[C@H]1C[C@@H]2CCN1C2 | 10.6
NCc1cc(N)cc(Cl)c1 | 9.54
NC(Cc1ccccc1)c1nnn[n-]1 (stereo not drawn) | 8.18
CC1=[NH+]c2ccccc2/C1=C/C=C1\Cc2ccccc2N1C | 1.22
CC(O)C[NH+](CCCN1CCOCC1)CC(C)O (stereo not drawn) | 5.5
Nc1ccc2[nH]c(=O)[nH]c2c1 | 5
CCCCn1ccnc1 | 7.14
COc1cc(S(C)=O)ccc1-c1cn2cccnc2n1 (stereo not drawn) | 3.7
C#CC(C)(C)NC(C)(C)C=C | 8.2
Nc1ccc(C(=O)c2ccc(N)cc2)cc1 | 2.92
Cc1ccc(-c2cnc(-c3ccc(Cl)cc3)o2)cc1 | 0.58
CCOC(=O)CC(c1ccccc1)N(C)C (stereo not drawn) | 7.66
CCN(CC)CC(=O)N(C)c1ccccc1C | 8.74
C1CCCNCC1 | 11
CCCC1N=C(N)N=C(Nc2ccc(SC)cc2)N1 (stereo not drawn) | 10.6
CCCCNCCN | 10.3
Cc1cc(C)n(-c2ccccn2)n1 | 1.89
CNCCc1ccccc1 | 10.2
Cn1cncc(-c2ccccc2)c1=O | 1.5
Cc1cnoc1C | 0
CN(C)CC(P(=O)([O-])[O-])P(=O)([O-])[O-] | 8.98
CC(O)CN(C)CC(C)O (stereo not drawn) | 8.7

Structure (SMILES) | pKa
Cc1ccc(-c2ncc(-c3ccc(Cl)cc3)o2)cc1 | 0.88
COc1ccc(O)c(CNC(CO)C(=O)[O-])c1 (stereo not drawn) | 8.3
C/C(=C(\CCO)SSCCC(C)C)N(C=O)Cc1cnc(C)nc1N | 5.58
CC(C)(C)CN | 10.2
CC(Cl)CN (stereo not drawn) | 8.54
Cc1cnc2c(cc(C)c3c(C)ccnc32)c1C | 6.45
NCCCCC(=O)[O-] | 10.8
Nc1cncnc1N | 6.03
C[C@@H]1CCC[C@H](N(C)C)C1 | 10.5
O=C(N[C@@H]1C[C@H]2CC[C@@H](C1)N2Cc1ccccc1)c1cccc2c1OCCO2 | 8.68
NNC(=O)[C@H](Cc1c[nH]cn1)NC(=O)OCc1ccccc1 | 6.1
C[NH2+]CCN | 7.49
O=C([O-])c1cnc2ccccc2c1 | 4.68
c1ccc2c(c1)CNCCCNCc1ccccc1OCCCO2 | 10
Cc1cc(-c2[nH]cc[nH+]2)n[nH]1 | 1.5
CN(C)CC[NH+](C)C | 6.04
O=C1CCC[C@H]2[C@H]3C[C@@H](CN12)[C@H]1CCCCN1C3 | 9.2
C=C(C)[C@H]1CN[C@H](C(=O)[O-])[C@H]1CC(=O)OC | 9.52
CC(C)c1ccncc1 | 6.02
CCC(C)(N)C(=O)[O-] (stereo not drawn) | 9.98
CCN(CC)CCSC1CCCCC1 | 8.11
